target: BCL6 (Homo sapiens (Human), UniProt P41182); assay: Immunofluorescence high content imaging of BCL6 degradation in T47D cells; assay type: cell-based; conditions: T47D cells
Summary of the method: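 T47D cells were treated for 3 days at 37 °C with 11-point 3-fold dilutions of bifunctional degrader (final top 0.1 or 1 μM). BCL6 was detected by immunofluorescence after PFA fixation, with Hoechst and cell mask counterstains, and imaged at 10×, 4 fields/well.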

Q: Which Dmax does the source give for `CNC(=O)COc1cc2cc(Nc3nc(N4CCC(CN5CCC(c6ccc(C(=O)NC7CCC(=O)NC7=O)o6)CC5)CC4)ncc3Cl)ccc2n(C)c1=O` (stereo not drawn) [compound 361, 5-[1-({1-[5-chloro-4-({1-methyl-3-[(methylcarbamoyl)methoxy]-2-oxo-1,2-dihydroquinolin-6-yl}amino)pyrimidin-2-yl]piperidin-4-yl}methyl)piperidin-4-yl]-N-(2,6-dioxopiperidin-3-yl)furan-2-carboxamide] here?
A: < 50%

Q: And the IC50?
A: 10 to 50 nM

Q: Which Dmax does the source give for `CNC(=O)COc1cc2cc(Nc3nc(N4CCC(OC5CC6(C5)CN(c5ccc7c(c5)C(=O)N(C5CCC(=O)NC5=O)C7=O)C6)CC4)ncc3Cl)ccc2n(C(C)C)c1=O` (stereo not drawn) [compound 362, 2-{[6-({5-chloro-2-[4-({2-[2-(2,6-dioxopiperidin-3-yl)-1,3-dioxo-2,3-dihydro-1H-isoindol-5-yl]-2-azaspiro[3.3]heptan-6-yl}oxy)piperidin-1-yl]pyrimidin-4-yl}amino)-2-oxo-1-(propan-2-yl)-1,2-dihydroquinolin-3-yl]oxy}-N-methylacetamide] here?
A: 50 to 70%

Q: What about the IC50 of the same molecule?
A: < 10 nM

Q: Which Dmax does the source give for `CNC(=O)COc1cc2cc(Nc3nc(N4CCC(OC5CC6(C5)CN(c5cccc7c5C(=O)N(C5CCC(=O)NC5=O)C7=O)C6)CC4)ncc3Cl)ccc2n(C(C)C)c1=O` (stereo not drawn) [compound 363, 2-{[6-({5-chloro-2-[4-({2-[2-(2,6-dioxopiperidin-3-yl)-1,3-dioxo-2,3-dihydro-1H-isoindol-4-yl]-2-azaspiro[3.3]heptan-6-yl}oxy)piperidin-1-yl]pyrimidin-4-yl}amino)-2-oxo-1-(propan-2-yl)-1,2-dihydroquinolin-3-yl]oxy}-N-methylacetamide] here?
A: ≥ 70%

Q: What about the IC50 of the same molecule?
A: < 10 nM

Q: With `CCn1c(=O)c(OCC(=O)NC)cc2cc(Nc3nc(N4CCC(CN5CCC(c6ccc7c(c6)C(=O)N(C6CCC(=O)NC6=O)C7=O)CC5)CC4)ncc3Cl)ccc21` (stereo not drawn) [compound 364, 2-{[6-({5-chloro-2-[4-({4-[2-(2,6-dioxopiperidin-3-yl)-1,3-dioxo-2,3-dihydro-1H-isoindol-5-yl]piperidin-1-yl}methyl)piperidin-1-yl]pyrimidin-4-yl}amino)-1-ethyl-2-oxo-1,2-dihydroquinolin-3-yl]oxy}-N-methylacetamide] as the molecule, how does the Dmax read?
A: ≥ 70%

Q: What about the IC50 of the same molecule?
A: 10 to 50 nM

Q: How did the Dmax turn out when `CNC(=O)COc1cc2cc(Nc3nc(N4CCC(CN5CCC(c6ccc7c(c6)C(=O)N(C6CCC(=O)NC6=O)C7=O)CC5)CC4)ncc3Cl)ccc2n(C(C)C)c1=O` (stereo not drawn) [compound 365, 2-{[6-({5-chloro-2-[4-({4-[2-(2,6-dioxopiperidin-3-yl)-1,3-dioxo-2,3-dihydro-1H-isoindol-5-yl]piperidin-1-yl}methyl)piperidin-1-yl]pyrimidin-4-yl}amino)-2-oxo-1-(propan-2-yl)-1,2-dihydroquinolin-3-yl]oxy}-N-methylacetamide] was run?
A: ≥ 70%

Q: And the IC50?
A: < 10 nM

Q: Which results are given for `CNC(=O)COc1cc2cc(Nc3nc(N4CCC(F)(CN5CCN(c6ccc(C(=O)NC7CCC(=O)NC7=O)c(OC)c6)CC5)CC4)ncc3Cl)ccc2n(C)c1=O` (stereo not drawn) [compound 366, 4-[4-({1-[5-chloro-4-({1-methyl-3-[(methylcarbamoyl)methoxy]-2-oxo-1,2-dihydroquinolin-6-yl}amino)pyrimidin-2-yl]-4-fluoropiperidin-4-yl}methyl)piperazin-1-yl]-N-(2,6-dioxopiperidin-3-yl)-2-methoxybenzamide]?
A: Dmax: 50 to 70%; IC50: < 10 nM

Q: How did the Dmax turn out when `CNC(=O)COc1cc2cc(Nc3nc(N4CCN(CC5(F)CCN(c6ccc(C(=O)NC7CCC(=O)NC7=O)c(OC)c6)CC5)CC4)ncc3Cl)ccc2n(C)c1=O` (stereo not drawn) [compound 367, 4-[4-({4-[5-chloro-4-({1-methyl-3-[(methylcarbamoyl)methoxy]-2-oxo-1,2-dihydroquinolin-6-yl}amino)pyrimidin-2-yl]piperazin-1-yl}methyl)-4-fluoropiperidin-1-yl]-N-(2,6-dioxopiperidin-3-yl)-2-methoxybenzamide] was run?
A: 50 to 70%

Q: And the IC50?
A: < 10 nM

Q: Which Dmax does the source give for `CNC(=O)COc1cc2cc(Nc3nc(N4CCN(CC5CCN(c6cc(OC)c(C(=O)NC7CCC(=O)NC7=O)c(OC)c6)CC5)CC4)ncc3Cl)ccc2n(C)c1=O` (stereo not drawn) [compound 368, 4-[4-({4-[5-chloro-4-({1-methyl-3-[(methylcarbamoyl)methoxy]-2-oxo-1,2-dihydroquinolin-6-yl}amino)pyrimidin-2-yl]piperazin-1-yl}methyl)piperidin-1-yl]-N-(2,6-dioxopiperidin-3-yl)-2,6-dimethoxybenzamide] here?
A: < 50%

Q: And the IC50?
A: 10 to 50 nM

Q: How did the Dmax turn out when `CCn1c(=O)c(OCC(=O)NC)cc2cc(Nc3nc(N4CCN([C@H]5C[C@H](COc6ccc7c(c6)C(=O)N(C6CCC(=O)NC6=O)C7=O)N(C)C5)CC4)ncc3Cl)ccc21` (stereo partly drawn) [compound 371, 2-({6-[(5-chloro-2-{4-[(3S,5R)-5-({[2-(2,6-dioxopiperidin-3-yl)-1,3-dioxo-2,3-dihydro-1H-isoindol-5-yl]oxy}methyl)-1-methylpyrrolidin-3-yl]piperazin-1-yl}pyrimidin-4-yl)amino]-1-ethyl-2-oxo-1,2-dihydroquinolin-3-yl}oxy)-N-methylacetamide] was run?
A: 50 to 70%

Q: And the IC50?
A: ≥ 100 nM

Q: What does the source list for `CNC(=O)COc1cc2cc(Nc3nc(N4CCC(CN5CCC6(CC5)CN(c5ccc7c(c5)C(=O)N(C5CCC(=O)NC5=O)C7=O)C6)CC4)ncc3Cl)ccc2n(C(C)C)c1=O` (stereo not drawn) [compound 372, 2-{[6-({5-chloro-2-[4-({2-[2-(2,6-dioxopiperidin-3-yl)-1,3-dioxo-2,3-dihydro-1H-isoindol-5-yl]-2,7-diazaspiro[3.5]nonan-7-yl}methyl)piperidin-1-yl]pyrimidin-4-yl}amino)-2-oxo-1-(propan-2-yl)-1,2-dihydroquinolin-3-yl]oxy}-N-methylacetamide]?
A: Dmax: 50 to 70%; IC50: < 10 nM

Q: Which IC50 does the source give for `CNC(=O)COc1cc2cc(Nc3nc(NCCc4ccc(C(=O)NC5CCC(=O)NC5=O)nc4)ncc3Cl)ccc2n(C(C)C)c1=O` (stereo not drawn) [compound 373, 5-(2-{[5-chloro-4-({3-[(methylcarbamoyl)methoxy]-2-oxo-1-(propan-2-yl)-1,2-dihydroquinolin-6-yl}amino)pyrimidin-2-yl]amino}ethyl)-N-(2,6-dioxopiperidin-3-yl)pyridine-2-carboxamide] here?
A: ≥ 100 nM

Q: For `CNC(=O)COc1cc2cc(Nc3nc(N4CCC(CN5CC6(CCN(c7ccc8c(c7)C(=O)N(C7CCC(=O)NC7=O)C8=O)CC6)C5)CC4)ncc3Cl)ccc2n(C(C)C)c1=O` (stereo not drawn) [compound 374, 2-{[6-({5-chloro-2-[4-({7-[2-(2,6-dioxopiperidin-3-yl)-1,3-dioxo-2,3-dihydro-1H-isoindol-5-yl]-2,7-diazaspiro[3.5]nonan-2-yl}methyl)piperidin-1-yl]pyrimidin-4-yl}amino)-2-oxo-1-(propan-2-yl)-1,2-dihydroquinolin-3-yl]oxy}-N-methylacetamide], which Dmax is on record?
A: ≥ 70%

Q: What about the IC50 of the same molecule?
A: < 10 nM

Q: How did the Dmax turn out when `CCn1c(=O)c(OCC(=O)NC)cc2cc(Nc3nc(N4CCN(CC5CCN(c6ccc(C(=O)NC7CCC(=O)NC7=O)c(OC)c6)CC5)CC4)ncc3Cl)ccc21` (stereo not drawn) [compound 375, 4-[4-({4-[5-chloro-4-({1-ethyl-3-[(methylcarbamoyl)methoxy]-2-oxo-1,2-dihydroquinolin-6-yl}amino)pyrimidin-2-yl]piperazin-1-yl}methyl)piperidin-1-yl]-N-(2,6-dioxopiperidin-3-yl)-2-methoxybenzamide] was run?
A: 50 to 70%

Q: And the IC50?
A: < 10 nM

Q: Which results are given for `CNC(=O)COc1cc2cc(Nc3nc(N4CCN(CC5CCN(c6ccc(C(=O)NC7CCC(=O)NC7=O)c(OC)c6)CC5)CC4)ncc3Cl)ccc2n(C(C)C)c1=O` (stereo not drawn) [compound 376, 4-[4-({4-[5-chloro-4-({3-[(methylcarbamoyl)methoxy]-2-oxo-1-(propan-2-yl)-1,2-dihydroquinolin-6-yl}amino)pyrimidin-2-yl]piperazin-1-yl}methyl)piperidin-1-yl]-N-(2,6-dioxopiperidin-3-yl)-2-methoxybenzamide]?
A: Dmax: 50 to 70%; IC50: < 10 nM

Q: How did the IC50 turn out when `CNC(=O)COc1cc2cc(Nc3nc(N4CCN(CC5CCN(c6ccc(C(=O)NC7CCC(=O)NC7=O)[n+]([O-])c6)CC5)CC4)ncc3Cl)ccc2n(C)c1=O` (stereo not drawn) [compound 377, 5-[4-({4-[5-chloro-4-({1-methyl-3-[(methylcarbamoyl)methoxy]-2-oxo-1,2-dihydroquinolin-6-yl}amino)pyrimidin-2-yl]piperazin-1-yl}methyl)piperidin-1-yl]-2-[(2,6-dioxopiperidin-3-yl)carbamoyl]pyridin-1-ium-1-olate] was run?
A: ≥ 100 nM

Q: Which IC50 does the source give for `CNC(=O)COc1cc2cc(Nc3nc(N4CCO[C@H](CCOc5ccc6c(c5)C(=O)N(C5CCC(=O)NC5=O)C6=O)C4)ncc3Cl)ccc2n(C(C)C)c1=O` (stereo partly drawn) [compound 379, 2-{[6-({5-chloro-2-[(2R)-2-(2-{[2-(2,6-dioxopiperidin-3-yl)-1,3-dioxo-2,3-dihydro-1H-isoindol-5-yl]oxy}ethyl)morpholin-4-yl]pyrimidin-4-yl}amino)-2-oxo-1-(propan-2-yl)-1,2-dihydroquinolin-3-yl]oxy}-N-methylacetamide] here?
A: ≥ 100 nM

Q: `CNC(=O)COc1cc2cc(Nc3nc(N4CCN(CC5CCCN5c5ccc6c(c5)C(=O)N(C5CCC(=O)NC5=O)C6=O)CC4)ncc3Cl)ccc2n(C(C)C)c1=O` (stereo not drawn) [compound 380, 2-{[6-({5-chloro-2-[4-({1-[2-(2,6-dioxopiperidin-3-yl)-1,3-dioxo-2,3-dihydro-1H-isoindol-5-yl]pyrrolidin-2-yl}methyl)piperazin-1-yl]pyrimidin-4-yl}amino)-2-oxo-1-(propan-2-yl)-1,2-dihydroquinolin-3-yl]oxy}-N-methylacetamide] was tested. Which Dmax did it give?
A: < 50%

Q: And the IC50?
A: 10 to 50 nM

Q: With `CNC(=O)COc1cc2cc(Nc3nc(N4C[C@@H](COc5ccc6c(c5)C(=O)N(C5CCC(=O)NC5=O)C6=O)O[C@H](C)C4)ncc3Cl)ccc2n(C(C)C)c1=O` (stereo partly drawn) [compound 382, 2-{[6-({5-chloro-2-[(2S,6R)-2-({[2-(2,6-dioxopiperidin-3-yl)-1,3-dioxo-2,3-dihydro-1H-isoindol-5-yl]oxy}methyl)-6-methylmorpholin-4-yl]pyrimidin-4-yl}amino)-2-oxo-1-(propan-2-yl)-1,2-dihydroquinolin-3-yl]oxy}-N-methylacetamide] as the molecule, how does the Dmax read?
A: 50 to 70%

Q: And the IC50?
A: 50 to 100 nM

Source: patent US12310975B2, “Modulators of BCL6 proteolysis and associated methods of use” (Arvinas Operations, Inc., priority 2019, dated 2025)
